In US10717716B2, “1,3,4-oxadiazole derivative compounds as histone deacetylase 6 inhibitor, and the pharmaceutical composition comprising the same” (Chong Kun Dang Pharmaceutical Corp., priority 2015, dated 2020):

What was measured:
[1] = molecular target: T1, human recombinant HDAC1 (Homo sapiens, UniProt Q13547); assay: HDAC1 enzyme activity inhibition assay (HDAC Fluorimetric Drug Discovery Kit); format: biochemical; details: 30° C. 60 minutes
T1 construct: purchased Enzo Life Science BML-SE456
T1 sequence (Q13547 whole entry): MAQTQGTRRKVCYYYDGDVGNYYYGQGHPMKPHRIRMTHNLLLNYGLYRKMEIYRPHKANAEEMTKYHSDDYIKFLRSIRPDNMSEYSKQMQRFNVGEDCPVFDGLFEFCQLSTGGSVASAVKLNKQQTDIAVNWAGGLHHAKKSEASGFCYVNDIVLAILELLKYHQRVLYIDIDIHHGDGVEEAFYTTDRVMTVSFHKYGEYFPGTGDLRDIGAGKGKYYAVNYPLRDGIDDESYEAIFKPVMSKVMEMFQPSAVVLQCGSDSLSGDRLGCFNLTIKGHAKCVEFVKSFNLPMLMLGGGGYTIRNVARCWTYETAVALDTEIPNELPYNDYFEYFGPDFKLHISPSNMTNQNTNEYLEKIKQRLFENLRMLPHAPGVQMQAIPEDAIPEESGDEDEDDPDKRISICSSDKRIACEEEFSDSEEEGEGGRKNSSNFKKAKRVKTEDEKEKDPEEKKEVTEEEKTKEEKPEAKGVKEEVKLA
Method in brief: (§1)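 Fluorimetric deacetylase assay: 5-fold serial compound dilutions, 0.3 μg recombinant human enzyme (HDAC1 or HDAC6, same protocol), 10 μM Fluor de Lys-SIRT1 substrate, 60 min at 30 °C. Signal developed 30 min, measured at 360/460 nm; IC50 values derived.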

[2] = molecular target: T2, human recombinant HDAC6 (Homo sapiens, UniProt Q9UBN7); assay: HDAC6 enzyme activity inhibition assay (HDAC Fluorimetric Drug Discovery Kit); format: biochemical; details: for HDAC6 selectivity (fold): HDAC6 over HDAC1; for IC50: human recombinant HDAC6, same protocol as HDAC1, read-out: HDAC6
T2 construct: purchased Calbiochem 382180
T2 sequence (Q9UBN7 1-1215): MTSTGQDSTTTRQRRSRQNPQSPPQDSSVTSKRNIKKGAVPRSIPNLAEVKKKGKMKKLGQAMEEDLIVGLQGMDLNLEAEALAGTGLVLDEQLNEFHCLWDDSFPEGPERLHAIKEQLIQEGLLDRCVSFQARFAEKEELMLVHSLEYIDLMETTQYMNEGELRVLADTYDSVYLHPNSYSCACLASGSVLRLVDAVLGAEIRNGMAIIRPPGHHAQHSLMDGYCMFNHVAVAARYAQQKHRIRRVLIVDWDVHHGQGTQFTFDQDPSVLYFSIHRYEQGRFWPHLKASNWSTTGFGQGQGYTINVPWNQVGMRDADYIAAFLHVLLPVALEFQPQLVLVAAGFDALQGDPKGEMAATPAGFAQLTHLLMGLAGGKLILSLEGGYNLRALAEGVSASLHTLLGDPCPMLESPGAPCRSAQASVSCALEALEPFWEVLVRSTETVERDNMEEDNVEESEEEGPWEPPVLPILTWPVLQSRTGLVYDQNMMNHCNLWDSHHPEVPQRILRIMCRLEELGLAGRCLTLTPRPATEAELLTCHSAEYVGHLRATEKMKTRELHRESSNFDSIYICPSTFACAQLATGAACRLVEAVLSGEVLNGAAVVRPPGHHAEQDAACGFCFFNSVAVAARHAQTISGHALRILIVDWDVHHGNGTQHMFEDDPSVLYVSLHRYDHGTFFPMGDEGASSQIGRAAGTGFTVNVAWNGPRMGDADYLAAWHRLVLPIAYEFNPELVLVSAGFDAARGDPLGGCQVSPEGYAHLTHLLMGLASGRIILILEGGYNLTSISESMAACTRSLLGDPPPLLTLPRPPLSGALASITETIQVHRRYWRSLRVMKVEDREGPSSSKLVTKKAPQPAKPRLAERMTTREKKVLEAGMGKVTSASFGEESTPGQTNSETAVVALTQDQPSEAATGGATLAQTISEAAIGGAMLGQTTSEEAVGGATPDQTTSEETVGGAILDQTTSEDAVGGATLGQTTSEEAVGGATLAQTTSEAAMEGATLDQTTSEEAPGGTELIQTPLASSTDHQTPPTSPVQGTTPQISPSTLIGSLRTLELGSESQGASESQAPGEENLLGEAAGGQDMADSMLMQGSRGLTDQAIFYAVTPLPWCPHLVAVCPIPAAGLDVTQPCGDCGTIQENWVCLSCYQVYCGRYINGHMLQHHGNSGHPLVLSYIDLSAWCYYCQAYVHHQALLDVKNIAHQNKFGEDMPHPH
Method in brief: as §1

[3] = human recombinant HDAC1, Fluor de Lys substrate 10 μM
[4] = human recombinant HDAC1, Fluor de Lys substrate

SMILES | IC50 [1, 3] [nM] | HDAC6 selectivity (fold) [2] [fold] | IC50 [2] [nM] | IC50 [1, 4] [nM]
O=C(N1CCOCC1)N(Cc1ccc(-c2nnc(C(F)(F)F)o2)cc1F)c1cccc(Cl)c1 [Compound 21854, N-(3-chlorophenyl)-N-(2-fluoro-4-(5-(trifluoromethyl)-1,3,4-oxadiazol-2-yl)benzyl)morpholine-4-carboxamide] | 12700 | 46 | 276 | –
O=C(N1CC[C@H](F)C1)N(Cc1ccc(-c2nnc(C(F)F)o2)cc1F)c1ccc(F)c(Cl)c1 [Compound 21665, (S)—N-(3-chloro-4-fluorophenyl)-N-(4-(5-(difluoromethyl)-1,3,4-oxadiazol-2-yl)-2-fluorobenzyl)-3-fluoropyrrolidine-1-carboxamide] | 19100 | 917 | 21 | –
O=C(N1CCN(C2COC2)CC1)N(Cc1ccc(-c2nnc(C(F)F)o2)cn1)c1ccc(F)cc1 [Compound 21941, N-((5-(5-(Difluoromethyl)-1,3,4-oxadiazol-2-yl)pyridin-2-yl)methyl)-N-(4-fluorophenyl)-4-(oxetan-3-yl)piperazine-1-carboxamide] | – | 446 | 103 | 46000
COc1cccc(N(Cc2ccc(-c3nnc(C(F)F)o3)cc2)C(=O)N2CCN(C3COC3)CC2)c1 [Compound 21948, N-(4-(5-(Difluoromethyl)-1,3,4-oxadiazol-2-yl)benzyl)-N-(3-methoxyphenyl)-4-(oxetan-3-yl)piperazine-1-carboxamide] | – | 188 | 246 | 46300
CN1CCN(C(=O)N(Cc2ccc(-c3nnc(C(F)F)o3)cc2F)c2cccc3c2cnn3C)CC1 [Compound 21709, N-(4-(5-(difluoromethyl)-1,3,4-oxadiazol-2-yl)-2-fluorobenzyl)-4-methyl-N-(1-methyl-1H-indazol-4-yl)piperazine-1-carboxamide] | 58500 | 2255 | 26 | –
CCN1CCN(C(=O)N(Cc2ccc(-c3nnc(C(F)(F)F)o3)cc2F)c2ccc(F)c(Cl)c2)CC1 [Compound 21592, N-(3-chloro-4-fluorophenyl)-4-ethyl-N-(2-fluoro-4-(5-(trifluoromethyl)-1,3,4-oxadiazol-2-yl)benzyl)piperazine-1-carboxamide] | 8280 | 100 | 100 | –
CCN1CCN(C(=O)N(Cc2ccc(-c3nnc(C(F)(F)F)o3)cc2F)c2cccc(OC)c2)CC1 [Compound 21872, 4-Ethyl-N-(2-fluoro-4-(5-(trifluoromethyl)-1,3,4-oxadiazol-2-yl)benzyl)-N-(3-methoxyphenyl)piperazine-1-carboxamide] | 9430 | 38 | 249 | –
CCN1CCN(C(=O)N(Cc2ccc(-c3nnc(C(F)F)o3)cn2)c2cccc(Cl)c2)CC1 [Compound 21879, N-(3-Chlorophenyl)-N-((5-(5-(difluoromethyl)-1,3,4-oxadiazol-2-yl)pyridin-2-yl)methyl)-4-ethylpiperazine-1-carboxamide] | 27900 | 1064 | 26 | –
O=C(N1CCOCC1)N(Cc1ccc(-c2nnc(C(F)(F)F)o2)cn1)c1ccc(F)cc1F [Compound 21857, N-(2,4-difluorophenyl)-N-((5-(5-(trifluoromethyl)-1,3,4-oxadiazol-2-yl)pyridin-2-yl)methyl)morpholine-4-carboxamide] | 23900 | 182 | 131 | –
Cn1ncc2c(N(Cc3ccc(-c4nnc(C(F)F)o4)cc3F)C(=O)N3CCS(=O)(=O)CC3)cccc21 [Compound 21710, N-(4-(5-(difluoromethyl)-1,3,4-oxadiazol-2-yl)-2-fluorobenzyl)-N-(1-methyl-1H-indazol-4-yl)thiomorpholine-4-carboxamide 1,1-dioxide] | 67700 | 2651 | 26 | –
CCN1CCN(C(=O)N(Cc2ccc(-c3nnc(C(F)(F)F)o3)cn2)c2cccc(OC)c2)CC1 [Compound 21873, 4-Ethyl-N-(3-methoxyphenyl)-N-((5-(5-(trifluoromethyl)-1,3,4-oxadiazol-2-yl)pyridin-2-yl)methyl)piperazine-1-carboxamide] | 14900 | 55 | 269 | –
CS(=O)(=O)c1ccc(N(Cc2ccc(-c3nnc(C(F)(F)F)o3)cc2)C(=O)N2CCOCC2)cc1 [Compound 21443, N-(4-(methylsulfonyl)phenyl)-N-(4-(5-(trifluoromethyl)-1,3,4-oxadiazol-2-yl)benzyl)morpholine-4-carboxamide] | 7440 | 20 | 366 | –
COc1cccc(N(Cc2ccc(-c3nnc(C(F)(F)F)o3)cc2)C(=O)N2CCS(=O)(=O)CC2)c1 [Compound 21441, N-(3-methoxyphenyl)-N-(4-(5-(trifluoromethyl)-1,3,4-oxadiazol-2-yl)benzyl)thiomorpholine-4-carboxamide 1,1-dioxide] | 2530 | 18 | 139 | –
CCN1CCN(C(=O)N(Cc2ccc(-c3nnc(C(F)(F)F)o3)cn2)c2ccc(OC)cc2)CC1 [Compound 21876, 4-Ethyl-N-(4-methoxyphenyl)-N-((5-(5-(trifluoromethyl)-1,3,4-oxadiazol-2-yl)pyridin-2-yl)methyl)piperazine-1-carboxamide] | 11700 | 46 | 255 | –
CCN1CCN(Cc2ccc(N(Cc3ccc(-c4nnc(C(F)F)o4)cc3F)C(=O)N3CCS(=O)(=O)CC3)cc2)CC1 [Compound 21899, N-(4-(5-(difluoromethyl)-1,3,4-oxadiazol-2-yl)-2-fluorobenzyl)-N-(4-((4-ethylpiperazin-1-yl)methyl)phenyl)thiomorpholine-4-carboxamide 1,1-dioxide] | 75700 | 1364 | 55 | –
O=C(N1CCOCC1)N(Cc1ccc(-c2nnc(C(F)F)o2)cn1)c1ccc(Cl)cc1 [Compound 21847, N-(4-chlorophenyl)-N-((5-(5-(difluoromethyl)-1,3,4-oxadiazol-2-yl)pyridin-2-yl)methyl) morpholine-4-carboxamide] | 70200 | 1811 | 39 | –
CCN1CCN(C(=O)N(Cc2ccc(-c3nnc(C(F)(F)F)o3)cc2F)c2cccc(F)c2F)CC1 [Compound 21659, N-(2,3-difluorophenyl)-4-ethyl-N-(2-fluoro-4-(5-(trifluoromethyl)-1,3,4-oxadiazol-2-yl)benzyl)piperazine-1-carboxamide] | 15700 | 153 | 102 | –
O=C(N1CCOCC1)N(Cc1ccc(-c2nnc(C(F)(F)F)o2)cc1F)c1ccc(F)c(Cl)c1 [Compound 21930, N-(3-chloro-4-fluorophenyl)-N-(2-fluoro-4-(5-(trifluoromethyl)-1,3,4-oxadiazol-2-yl)benzyl)morpholine-4-carboxamide] | – | 35 | 419 | 14600
CCN1CCN(C(=O)N(Cc2ccc(-c3nnc(C(F)(F)F)o3)cc2)c2ccc(Cl)cc2)CC1 [Compound 21862, N-(4-Chlorophenyl)-4-ethyl-N-(4-(5-(trifluoromethyl)-1,3,4-oxadiazol-2-yl)benzyl)piperazine-1-carboxamide] | 33700 | 71 | 472 | –
O=C(N1CCC(F)(F)C1)N(Cc1ccc(-c2nnc(C(F)(F)F)o2)cc1F)c1ccc(F)c(Cl)c1 [Compound 21668, N-(3-chloro-4-fluorophenyl)-3,3-difluoro-N-(2-fluoro-4-(5-(trifluoromethyl)-1,3,4-oxadiazol-2-yl)benzyl)pyrrolidine-1-carboxamide] | 10400 | 41 | 253 | –
